Several values for one entry are separate records, joined by “and”; a condition that tells them apart may be missing. Equal values may be shown once.
Test system: 832693-133-R-J1-PDC multi-cell spheroids, viability
Test: Anticancer human tumor 832693-133-R-J1-PDC patient-derived head and neck squamous carcinoma cell line growth inhibition [IpAb]
Details: for viability, T/C: stronger effect = lower value
Summary of the method: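 Spheroids of 60% malignant cells, 25% HUVEC and 15% MSC were exposed to targeted agents combined with ipatasertib or abemaciclib. Doses started at or near clinical Cmax (10 microM when unknown) and fell in half-log steps.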

[1] = curve of first compound, second compound 0.1 µM
[2] = curve of first compound, second compound 0.316 µM
[3] = curve of first compound, second compound 1 µM
[4] = curve of first compound, second compound 3.16 µM
[5] = curve of first compound, second compound 10 µM
[6] = second compound 0.1 µM, first compound 0.0316 µM
[7] = second compound 0.1 µM, first compound 0.1 µM
[8] = second compound 0.1 µM, first compound 0.316 µM
[9] = second compound 0.1 µM, first compound 1 µM
[10] = second compound 0.1 µM, first compound 3.16 µM
[11] = second compound 0.1 µM, first compound 10 µM
[12] = second compound 0.316 µM, first compound 0.0316 µM
[13] = second compound 0.316 µM, first compound 0.1 µM
[14] = second compound 0.316 µM, first compound 0.316 µM
[15] = second compound 0.316 µM, first compound 1 µM
[16] = second compound 0.316 µM, first compound 3.16 µM
[17] = second compound 0.316 µM, first compound 10 µM
[18] = second compound 1 µM, first compound 0.0316 µM
[19] = second compound 1 µM, first compound 0.1 µM
[20] = second compound 1 µM, first compound 0.316 µM
[21] = second compound 1 µM, first compound 1 µM
[22] = second compound 1 µM, first compound 3.16 µM
[23] = second compound 1 µM, first compound 10 µM
[24] = second compound 3.16 µM, first compound 0.0316 µM
[25] = second compound 3.16 µM, first compound 0.1 µM
[26] = second compound 3.16 µM, first compound 0.316 µM
[27] = second compound 3.16 µM, first compound 1 µM
[28] = second compound 3.16 µM, first compound 3.16 µM
[29] = second compound 3.16 µM, first compound 10 µM
[30] = second compound 10 µM, first compound 0.0316 µM
[31] = second compound 10 µM, first compound 0.1 µM
[32] = second compound 10 µM, first compound 0.316 µM
[33] = second compound 10 µM, first compound 1 µM
[34] = second compound 10 µM, first compound 3.16 µM
[35] = second compound 10 µM, first compound 10 µM
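Further: spheroids exposed to the drugs for one week before the viability readout.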
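Wherever viability, T/C is given: 100% = DMSO vehicle control wells.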

Molecule `CC(C)(C)c1cnc(CSc2cnc(NC(=O)C3CCNCC3)s2)o1` + CC(C)NCC(C(=O)N1CCN(c2ncnc3c2C(C)CC3O)CC1)c1ccc(Cl)cc1 has an IC50 [1] of 219 nM, an IC50 [2] of 189 nM and an IC50 [3] of 137 nM. It also gave an IC50 [4] of 133 nM, an IC50 [5] of 158 nM and a viability, T/C (second compound 0.1 µM, first compound 0.00949 µM) of 101%. The viability, T/C (second compound 0.1 µM, first compound 0.03 µM) was 122%, the viability, T/C (second compound 0.1 µM, first compound 0.0949 µM) was 146% and the viability, T/C (second compound 0.1 µM, first compound 0.3 µM) was 22.2%. It also gave a viability, T/C (second compound 0.1 µM, first compound 0.949 µM) of 1.14%, a viability, T/C (second compound 0.1 µM, first compound 3 µM) of 1.67% and a viability, T/C (second compound 0.316 µM, first compound 0.00949 µM) of 92.5%. It also gave a viability, T/C (second compound 0.316 µM, first compound 0.03 µM) of 94.2%, a viability, T/C (second compound 0.316 µM, first compound 0.0949 µM) of 113% and a viability, T/C (second compound 0.316 µM, first compound 0.3 µM) of 16.5%. The viability, T/C (second compound 0.316 µM, first compound 0.949 µM) was 0.85%, the viability, T/C (second compound 0.316 µM, first compound 3 µM) was 1.58% and the viability, T/C (second compound 1 µM, first compound 0.00949 µM) was 67.7%. The viability, T/C (second compound 1 µM, first compound 0.03 µM) was 70.7%, the viability, T/C (second compound 1 µM, first compound 0.0949 µM) was 75.6% and the viability, T/C (second compound 1 µM, first compound 0.3 µM) was 4.32%. For the same molecule, the viability, T/C (second compound 1 µM, first compound 0.949 µM) was 1.17%, the viability, T/C (second compound 1 µM, first compound 3 µM) was 1.18% and the viability, T/C (second compound 3.16 µM, first compound 0.00949 µM) was 60%. It also gave a viability, T/C (second compound 3.16 µM, first compound 0.03 µM) of 68%, a viability, T/C (second compound 3.16 µM, first compound 0.0949 µM) of 81.9% and a viability, T/C (second compound 3.16 µM, first compound 0.3 µM) of 1.46%. The viability, T/C (second compound 3.16 µM, first compound 0.949 µM) was 1.05%, the viability, T/C (second compound 3.16 µM, first compound 3 µM) was 1.4% and the viability, T/C (second compound 10 µM, first compound 0.00949 µM) was 75%. It also gave a viability, T/C (second compound 10 µM, first compound 0.03 µM) of 83.4%, a viability, T/C (second compound 10 µM, first compound 0.0949 µM) of 108% and a viability, T/C (second compound 10 µM, first compound 0.3 µM) of 0.9%. It also gave a viability, T/C (second compound 10 µM, first compound 0.949 µM) of 1.13% and a viability, T/C (second compound 10 µM, first compound 3 µM) of 1.37%.

In the case of `C=CCn1c(=O)c2cnc(Nc3ccc(N4CCN(C)CC4)cc3)nc2n1-c1cccc(C(C)(C)O)n1` + CC(C)NCC(C(=O)N1CCN(c2ncnc3c2C(C)CC3O)CC1)c1ccc(Cl)cc1, the IC50 [1] is reported as 133 nM, the IC50 [2] is reported as 76.7 nM and the IC50 [3] is reported as 35.8 nM. For the same molecule, the IC50 [4] was under 31.6 nM, the IC50 [5] was 42.9 nM and the viability, T/C [6] was 86%. For the same molecule, the viability, T/C [7] was 58%, the viability, T/C [8] was 25.8% and the viability, T/C [9] was 20.1%. For the same molecule, the viability, T/C [10] was 22.8%, the viability, T/C [11] was 10.4% and the viability, T/C [12] was 66.1%. The viability, T/C [13] was 45.8%, the viability, T/C [14] was 23% and the viability, T/C [15] was 14.6%. The viability, T/C [16] was 14.9%, the viability, T/C [17] was 6.24% and the viability, T/C [18] was 51.7%. The viability, T/C [19] was 35.5%, the viability, T/C [20] was 18.3% and the viability, T/C [21] was 12.9%. For the same molecule, the viability, T/C [22] was 11.6%, the viability, T/C [23] was 3.5% and the viability, T/C [24] was 48.5%. The viability, T/C [25] was 36%, the viability, T/C [26] was 25.3% and the viability, T/C [27] was 16.1%. For the same molecule, the viability, T/C [28] was 11.9%, the viability, T/C [29] was 3.31% and the viability, T/C [30] was 52.4%. It also gave a viability, T/C [31] of 43.2%, a viability, T/C [32] of 26.1% and a viability, T/C [33] of 9.68%. For the same molecule, the viability, T/C [34] was 6.52% and the viability, T/C [35] was 1.52%.

Work on `Cc1nc(NC(=O)N2CCCC2C(N)=O)sc1-c1ccnc(C(C)(C)C(F)(F)F)c1` (configuration not stated) + CC(C)NCC(C(=O)N1CCN(c2ncnc3c2C(C)CC3O)CC1)c1ccc(Cl)cc1 yielded an IC50 [1] of 452 nM, an IC50 [2] of 260 nM and an IC50 [3] of 40.9 nM. The IC50 [4] was under 31.6 nM, the IC50 [5] was 45 nM and the viability, T/C [6] was 90.3%. The viability, T/C [7] was 78.8%, the viability, T/C [8] was 51.3% and the viability, T/C [9] was 41%. The viability, T/C [10] was 14.1%, the viability, T/C [11] was 4.68% and the viability, T/C [12] was 77.8%. The viability, T/C [13] was 64.2%, the viability, T/C [14] was 49% and the viability, T/C [15] was 23.8%. For the same molecule, the viability, T/C [16] was 12.8%, the viability, T/C [17] was 3.31% and the viability, T/C [18] was 52.2%. It also gave a viability, T/C [19] of 41.5%, a viability, T/C [20] of 26.8% and a viability, T/C [21] of 16%. For the same molecule, the viability, T/C [22] was 9.89%, the viability, T/C [23] was 2.93% and the viability, T/C [24] was 46%. The viability, T/C [25] was 32.8%, the viability, T/C [26] was 24.4% and the viability, T/C [27] was 16.3%. For the same molecule, the viability, T/C [28] was 10.7%, the viability, T/C [29] was 3.55% and the viability, T/C [30] was 55.6%. For the same molecule, the viability, T/C [31] was 38.4%, the viability, T/C [32] was 28.6% and the viability, T/C [33] was 19.1%. The viability, T/C [34] was 13.3% and the viability, T/C [35] was 3.58%.

`CC(C)n1nc(-c2ccc3oc(N)nc3c2)c2c(N)ncnc21` was tested, and the viability, T/C (compound 0.000316 µM) was 94.6% and 91.2%, the viability, T/C (compound 0.001 µM) was 89.4% and 88.7% and the viability, T/C (compound 0.00316 µM) was 86.9% and 76%. The viability, T/C (compound 0.01 µM) was 76.9% and 68.7%, the viability, T/C (compound 0.0316 µM) was 67.5% and 60.2% and the viability, T/C (compound 0.1 µM) was 61.8% and 52.7%. It also gave an IC50 (curve of compound) of over 100 nM.

With `CC1(C)CCC(CN2CCN(c3ccc(C(=O)NS(=O)(=O)c4ccc(NCC5CCOCC5)c([N+](=O)[O-])c4)c(Oc4cnc5[nH]ccc5c4)c3)CC2)=C(c2ccc(Cl)cc2)C1` + CC(C)NCC(C(=O)N1CCN(c2ncnc3c2C(C)CC3O)CC1)c1ccc(Cl)cc1 the IC50 [1] was 9680 nM, the IC50 [2] was 4870 nM and the IC50 [3] was 3920 nM. The IC50 [4] was 3740 nM, the IC50 [5] was 3640 nM and the viability, T/C [6] was 94.1%. The viability, T/C [7] was 90.3%, the viability, T/C [8] was 94.6% and the viability, T/C [9] was 88.5%. For the same molecule, the viability, T/C [10] was 82.7%, the viability, T/C [11] was 48.8% and the viability, T/C [12] was 81.2%. The viability, T/C [13] was 80.3%, the viability, T/C [14] was 74.2% and the viability, T/C [15] was 64.7%. For the same molecule, the viability, T/C [16] was 68.7%, the viability, T/C [17] was 26.9% and the viability, T/C [18] was 60.9%. The viability, T/C [19] was 55.2%, the viability, T/C [20] was 55.2% and the viability, T/C [21] was 49.5%. For the same molecule, the viability, T/C [22] was 72.4%, the viability, T/C [23] was 12.7% and the viability, T/C [24] was 51.2%. The viability, T/C [25] was 47.6%, the viability, T/C [26] was 55.5% and the viability, T/C [27] was 57.3%. It also gave a viability, T/C [28] of 73.2%, a viability, T/C [29] of 8.99% and a viability, T/C [30] of 58.6%. For the same molecule, the viability, T/C [31] was 62.5%, the viability, T/C [32] was 52.2% and the viability, T/C [33] was 51.6%. The viability, T/C [34] was 57.4% and the viability, T/C [35] was 3.92%.
